In assay [1] the test system is Dundee panel of 140 protein kinases. As to the kind of experiment: Kinase profiling. It is filed as biochemical. The source says:
[…] Results for each kinase are presented as the mean kinase activity ±S.D. for an assay undertaken in duplicate relative to a control kinase assay in which the inhibitor was omitted. Abbreviations and assay conditions used for each kinase are available (http://www.kinase-screen.mrc.ac.uk/services/premier-screen).

Assay [2] relates to LRRK2 mediated phosphorylation of Rab10 at Thr73. As to the kind of experiment: Rab10 Thr73 phospho-immunoblot in wild-type MEFs. It is filed as cell-based, mouse. Conditions: for pIC50: Mus musculus. On the procedure:
Wild-type and homozygous LRRK2 [R1441C] […] All cells were grown at 37°C, 5% (by vol) CO2 in a humidified atmosphere and regularly tested for mycoplasma contamination.
Inhibitors were dissolved in dimethyl sulfoxide (DMSO) (Sigma, #D2650). The inhibitors were diluted 1000× into cell medium. The equivalent volume of DMSO was added to the minus inhibitor controls. Experiments were performed in six-well plates, 10 cm dishes or 15 cm dishes depending on the amount of cell extract required.
Lysates were incubated on ice for 30 min and clarified by centrifugation at 20 800×g at 4°C for 20 min. Supernatants were quantified by Bradford assay (Bio-Rad Protein Assay Dye Reagent Concentrate #5000006) and samples prepared in 1× lithium dodecyl sulfate sample buffer final concentration (NuPage LDS Sample buffer 4× Invitrogen, #NP0008). When not deployed immediately, lysates were snap-frozen in liquid nitrogen and stored at −80°C until use.
Cell extracts were mixed with a quarter of a volume of NuPage LDS Sample buffer 4× Invitrogen and heated at 95°C for 5 min. […] At the end of electrophoresis, proteins were electrophoretically transferred onto the nitrocellulose membrane (GE Healthcare, Amersham Protran Supported 0.45 µm NC) at 100 V for 90 min on ice in the transfer buffer (48 mM Tris–HCl and 39 mM glycine supplemented with 20% methanol). Transferred membrane was blocked with 5% (w/v) skim milk powder dissolved in TBS-T [20 mM Tris–HCl, pH 7.5, 150 mM NaCl and 0.1% (v/v) Tween 20] at room temperature for 1 h. The membrane was typically cropped into three pieces, namely the ‘top piece’ (from the top of the membrane to 75 kDa), the ‘middle piece’ (between 75 and 30 kDa) and the ‘bottom piece’ (from 30 kDa to the bottom of the membrane). All primary antibodies were used at 1 μg/ml final concentration and incubated in TBS-T containing 5% (by mass) bovine serum albumin with exception of α-tubulin and GAPDH antibodies that were diluted 1 : 5000 and 1 : 2000, respectively. The top piece was incubated with the indicated rabbit anti-LRRK2 phosphorylation site antibody multiplexed with mouse anti-LRRK2 C-terminus total antibody. The middle piece was incubated with mouse anti-GAPDH or anti-α-tubulin antibody. The bottom pieces were incubated with indicated total and phospho-Rab antibodies. Membranes were incubated in primary antibody overnight at 4°C. Prior to secondary antibody incubation, membranes were washed three times with TBS-T for 10 min each. […] Membranes were washed with TBS-T for three times with a 10 min incubation for each wash. Protein bands were acquired via near infrared fluorescent detection using the Odyssey CLx imaging system and quantified using the Image Studio software.
A general note: Immunoblotting shows a protein as a band on a membrane.

pIC50: −log10 of the molar value. Entries after “also recorded” stand apart in the source; their conditions may differ. Like-named read-outs stand apart in the source and are kept apart here.

As for `Cc1ccc(C(=O)Nc2ccc(CN3CCN(C)CC3)c(C(F)(F)F)c2)cc1C#Cc1cnc2[nH]ncc2c1` [GZD-824], the results for the “number of the 140 kinases assayed suppressed by over 80%” value in assay [1] (0.1 μM inhibitor) and in assay [1] (1 μM inhibitor) were 22 and 43, respectively. Moreover, the pIC50 is 7.15 in assay [2] (2 h, Figure 4, read-out: IC50 for dephosphorylation of Rab10, wild type MEFs (estimate in text)); 7.18 in assay [2] (2 h, wild type MEFs littermate matched to LRRK2[G2019S], 2 h, panel (B), read-out: LRRK2 WT Rab10 pThr73 IC50); 7.06 in assay [2] (2 h, wild type MEFs littermate matched to LRRK2[R1441C], 2 h, panel (A), read-out: LRRK2 WT Rab10 pThr73 IC50); about 6.52 in assay [2] (2 h, wild-type MEFs, 2 h, Figure 2A, read-out: IC50 inhibition of Rab10 phosphorylation). The “Rab10 phosphorylation level after treatment” value in assay [2] (wild-type MEFs, 1 μM, 2 h) is “almost background levels; also recorded: almost basal levels”. Moreover, the “Rab10 phosphorylation over 24 h time course” value in assay [2] (wild-type MEFs, 1 μM, 24 h) was “remained suppressed”. Moreover, the “time to 50% reduction of Rab10 phosphorylation” value in assay [2] (wild-type MEFs, 1 μM, Figure 2C) is listed as about 10 min.

For orientation: pIC50 means −log10 of the IC50, conventionally taken in molar units.

The values are drawn from article PMC8589421, “Impact of Type II LRRK2 inhibitors on signaling and mitophagy” (Biochemical Journal, 2021).
